Assay results: paper PMC11855827, “High-Throughput Screening of Five Compound Libraries for Anthelmintic Activity and Toxicity Leads to the Discovery of Two Flavonoid Compounds” (International Journal of Molecular Sciences, 2025)
Read-outs that look alike come from different tables or passages of the source. Marks after values point to notes of the source that are not given here.

Assays:
C. elegans [1] = conditions: read-out: EC50 found in the literature; cited from earlier work
C. elegans [2] = assay: C. elegans motility dose-response (DR) assay; parameters: species or system Caenorhabditis elegans
C. elegans [3] = assay: microbe, parasite or virus in culture; conditions: Caenorhabditis elegans
[4] = test system: T. circumcincta resistant strain; assay: Egg hatch inhibition (EHI), ovicidal effect; parameters: species or system Teladorsagia circumcincta; conditions: resistant strain, 100 μM; NE = Not Effective at 100 μM; control thiabendazole 0.1 µg/mL
C. elegans [5] = conditions: C. elegans L4 motility, 110 μM, mean ± SD of four experiments
[6] = test system: T. circumcincta resistant strain; assay: Larval migration inhibition test (LMIT); parameters: species or system Teladorsagia circumcincta; conditions: for inhibition at 100 µM: Teladorsagia circumcincta, 24 h, read-out: T. circumcincta LMIT (%)
Source text: (§1) Eggs and third instar larvae (L3) of H. contortus from a field strain and a resistant strain of T. circumcincta were used in the current trials. These parasitic forms were obtained from fresh feces of Merino and Churra sheep experimentally infected at the experimental farm of the Instituto de Ganadería de Montaña (IGM, CSIC, Gruyeros, León, Spain) and purified according to previously described methods. Briefly, eggs were taken from fresh feces, washed, centrifuged and floated with a saturated sodium chloride solution, then concentrated, counted and used in the assays. L3 were obtained by culturing feces at 25 °C for 13 d. L3 larvae were […] in 0.5% sodium hypochlorite solution for 10 min at room temperature and washed to avoid excess salt. After washing, they were concentrated and counted for use.
(§2) The viability of H. contortus larvae was assessed by the larval migration inhibition test (LMIT) according to previously described methods. Briefly, 700 µL aliquots containing 500–600 L3 were prepared for each compound. […] After a 24 h incubation at 28 °C, the compound was removed by three washes, leaving a final volume of 1400 µL. After the washes, three 400 µL aliquots were taken from each tube and transferred to a 96-well plate with a MultiScreen mesh filter. The plates were incubated for a further 24 h at 28 °C to allow the motile L3 to pass through the 20 µm mesh for counting. Then, the number of larvae present in each well was counted to determine percentage of larval migration for each compound: % Larval migration=number of larvae migrating in compound wells/number of larvae migrating in negative control×100
(§3) For the larvae, ivermectin at 8.75 µg/mL and DMSO 0.5% (v/v) were used as controls and at least 12 replicates were performed. […] EC50 were determined by plotting the percentage of viability of the L1 against the concentration of each compound, using the nonlinear fit analysis provided by the SigmaPlot® 10.1.

[7] = test system: H. contortus susceptible strain; assay: Larval migration inhibition test (LMIT); parameters: species or system Haemonchus contortus; conditions: L3, 100 μM, NE = Not Effective at 100 μM, control ivermectin 8.75 µg/mL
Source text: as §1, §2, §3

[8] = test system: H. contortus susceptible strain; assay: Egg hatch inhibition (EHI), ovicidal effect; parameters: species or system Haemonchus contortus; conditions: susceptible strain, 100 μM; NE = Not Effective at 100 μM; control thiabendazole 0.1 µg/mL
[9] = Caenorhabditis elegans, 24 h, read-out: EC50 (μM) at 24 h, C. elegans motility, DR assay, 24 h
[10] = 0 h, read-out: Inhibition (%) 110 μM (0 h), C. elegans L4 motility, 110 μM, 0 h, mean ± SD of four experiments
[11] = 24 h, read-out: Inhibition (%) 110 μM (24 h), C. elegans L4 motility, 110 μM, 24 h, mean ± SD of four experiments
[12] = resistant strain, L3, 100 μM, NE = Not Effective at 100 μM, control ivermectin 8.75 µg/mL
[13] = read-out: EC50 (μM) at 24 h, C. elegans motility, DR assay

SMILES | EC50 (C. elegans [2]; [9]) [µM] | EC50 (C. elegans [2]; [13]) [µM] | EC50 (C. elegans [1]) [µM] | inhibition at 110 µM (C. elegans [3]; [10]) [%] | inhibition at 110 µM (C. elegans [3]; [11]) [%] | T. circumcincta EHI (%) [4] [%] | Inhibition (%) 110 μM (0 h) (C. elegans [5]) [%] | Inhibition (%) 110 μM (24 h) (C. elegans [5]) [%] | H. contortus LMIT (%) [7] [%] | H. contortus EHI (%) [8] [%] | further results
CCOc1ccc2nc3cc(N)ccc3c(N)c2c1 [Ethacridine lactate monohydrate, reference compound] | – | 28.2 ± 1 | – | – | – | 0.0 | 73 ± 17 | 89 ± 4 | 0.0 | 54.8 ± 11.7 | inhibition at 100 µM [6, 12]: 0%; inhibition at 110 µM (C. elegans [3]; 0 h, read-out: Percentage of motility inhibition 0 h, Table S2, C. elegans SS assay, 110 μM, 0 h, averages of 4 data points): 72%
CC1(C)[C@H](OC(=O)c2ccccc2)CC[C@]2(C)C3=C([C@@H](O)C[C@@H]12)[C@@]1(C)CC[C@@]2(C)CC[C@@](C)(COC(=O)c4ccccc4)C[C@H]2[C@]1(C)CC3 [3,29-dibenzoyl rarounitriol] | – | 45.4 ± 5.1 | – | – | – | 0.0 | 40 ± 22 | 71 ± 19 | 0.0 | 0.0 | T. circumcincta LMIT (%) [6, 12]: 0.0 * %
C[C@@H]1CC[C@@]2(OC1)O[C@H]1C[C@H]3[C@@H]4CC=C5C[C@@H](O[C@@H]6O[C@H](CO)[C@@H](O[C@@H]7O[C@@H](C)[C@H](O)[C@@H](O)[C@H]7O)[C@H](O)[C@H]6O[C@@H]6O[C@@H](C)[C@H](O)[C@@H](O)[C@H]6O)CC[C@]5(C)[C@H]4CC[C@]3(C)[C@H]1[C@@H]2C [Dioscin] | – | – | – | – | – | – | – | – | – | – | inhibition at 100 µM [6]: 0%; inhibition at 100 µM ([7]; Haemonchus contortus, 24 h): 0%; EC50 (C. elegans [2]; Caenorhabditis elegans, read-out: EC50 (μM) at 24 h, C. elegans motility, DR assay): 37.8 ± 1.3 µM; inhibition at 110 µM (C. elegans [3]; 0 h, read-out: Inhibition (%) 110 μM (0 h)): 12 ± 1%; inhibition at 110 µM (C. elegans [3]; 24 h, read-out: Inhibition (%) 110 μM (24 h)): 79 ± 2%

Now from value to compound, other results behind:

EC50 (C. elegans [2]; [9]) [µM] | EC50 (C. elegans [2]; [13]) [µM] | SMILES | EC50 (C. elegans [1]) [µM] | inhibition at 110 µM (C. elegans [3]; [10]) [%] | inhibition at 110 µM (C. elegans [3]; [11]) [%] | T. circumcincta EHI (%) [4] [%] | Inhibition (%) 110 μM (0 h) (C. elegans [5]) [%] | Inhibition (%) 110 μM (24 h) (C. elegans [5]) [%] | H. contortus LMIT (%) [7] [%] | H. contortus EHI (%) [8] [%] | further results
1.91 | – | c1ccc([C@H]2CN3CCSC3=N2)cc1 [Levamisole, reference compound] | 6.4 | 87 ± 10 | 61 ± 3 | – | – | – | – | – | –
0.79 | – | CO/N=C1\C[C@]2(C[C@@H]3C[C@@H](C/C=C(\C)C[C@@H](C)/C=C/C=C4\CO[C@@H]5[C@H](O)C(C)=C[C@@H](C(=O)O3)[C@]45O)O2)O[C@H](/C(C)=C/C(C)C)[C@H]1C [Moxidectin, reference compound] | 0.03 | 99 ± 1 | 85 ± 13 | – | – | – | – | – | inhibition at 110 µM (C. elegans [3]; 24 h, read-out: Percentage of motility inhibition 24 h, Table S2, C. elegans SS assay, 110 μM, 24 h, averages of 4 data points): 86%
